Values of other authors as cited in PMC8287861 (Frontiers in Microbiology, 2021).
Values after ≈ are worked out from the molar mass of the structure shown. Where two headings read alike, the source gives them in different places. One block for each compound: values may come before it.

Legend:
[1] = tested on: Pseudomonas aeruginosa; design: method as in Lomovskaya et al. (2021); details: ref Lomovskaya et al. (2021); for MIC50 / MIC90: challenge panel, QPX7728 at 8 μg/ml
[2] = tested on: isogenic strains of P. aeruginosa that produced KPC; design: method as in Lomovskaya et al., 2020a; details: ref Lomovskaya et al., 2020a
[3] = tested on: Pseudomonas aeruginosa; design: method as in Lomovskaya et al. (2021); details: panel reflecting current MIC distribution (N = 500); QPX7728 at 8 μg/ml; ref Lomovskaya et al. (2021)
[4] = tested on: KPC-producing strains of Klebsiella pneumoniae and blaKPC mutants; design: method as in Nelson et al., 2019; details: ref Nelson et al., 2019
[5] = tested on: Enterobacterales producing ESBLs and carbapenemases; design: method as in Rubio-Aparicio et al., 2019; details: ref Rubio-Aparicio et al., 2019

MIC50 ([1]; All (N = 290)): 32 µg/mL (≈ 73.5 µM)
MIC90 ([1]; All (N = 290)): >64 µg/mL
MIC50 ([1]; MBL (N = 61)): 32 µg/mL (≈ 73.5 µM)
MIC90 ([1]; MBL (N = 61)): >64 µg/mL
MIC50 ([1]; No MBL (N = 229)): 32 µg/mL (≈ 73.5 µM)
MIC90 ([1]; No MBL (N = 229)): >64 µg/mL
SMILES: C[C@H]1[C@H](NC(=O)/C(=N\OC(C)(C)C(=O)O)c2csc(N)n2)C(=O)N1S(=O)(=O)O [Aztreonam, aztreonam]

SMILES: C[C@@H](O)[C@H]1C(=O)N2C(C(=O)[O-])=C(SC3Cn4cnc[n+]4C3)[C@H](C)[C@H]12 (stereo partly drawn) [Biapenem]
Biapenem MIC ([2]; PAM4126, mexR (MexAB-OprM)): 64 µg/mL
Biapenem MIC ([2]; PAM4129, nfxB (MexCD-OprJ)): 8 µg/mL
Biapenem MIC ([2]; PAM4132, mexT (MexEF-OprM)): 128 µg/mL
Biapenem MIC ([2]; PAM4150, mexZ (MexXY-OprM)): 64 µg/mL
Biapenem MIC ([2]; PAM4224, Wild-type): 64 µg/mL
Biapenem MIC ([2]; PAM4365, MexA::Tet): 64 µg/mL
MIC of the vector only strain ([2]; vector only counterpart of PAM4126, mexR (MexAB-OprM)): 0.125 µg/mL
MIC of the vector only strain ([2]; vector only counterpart of PAM4129, nfxB (MexCD-OprJ)): 0.03 µg/mL
MIC of the vector only strain ([2]; vector only counterpart of PAM4132, mexT (MexEF-OprM)): 0.5 µg/mL
MIC of the vector only strain ([2]; vector only counterpart of PAM4150, mexZ (MexXY-OprM)): 0.25 µg/mL
MIC of the vector only strain ([2]; vector only counterpart of PAM4224, Wild-type): 0.25 µg/mL
MIC of the vector only strain ([2]; vector only counterpart of PAM4365, MexA::Tet): 0.25 µg/mL

SMILES: CO/N=C(\C(=O)N[C@@H]1C(=O)N2C(C(=O)[O-])=C(C[N+]3(C)CCCC3)CS[C@H]12)c1csc(N)n1 [Cefepime, cefepime]
% of isolates shifted by QPX7728 at or below breakpoint ([1]; challenge panel (N = 290), with QPX7728, 8 or 16 μg/ml for cefepime and piperacillin, respectively): 70.3%
MIC50 ([1]; All (N = 290)): 32 µg/mL (≈ 66.6 µM)
MIC90 ([1]; All (N = 290)): 64 µg/mL (≈ 133 µM)
MIC50 ([1]; MBL (N = 61)): 64 µg/mL (≈ 133 µM)
MIC90 ([1]; MBL (N = 61)): 64 µg/mL (≈ 133 µM)
MIC50 ([1]; No MBL (N = 229)): 32 µg/mL (≈ 66.6 µM)
MIC90 ([1]; No MBL (N = 229)): 64 µg/mL (≈ 133 µM)
MIC50 [3]: 4 µg/mL (≈ 8.32 µM)
MIC90 [3]: 32 µg/mL (≈ 66.6 µM)
MIC ([4]; KP1074, KPC-3, SHV-11, TEM-1/GD): >128 µg/mL
MIC ([4]; KP1099, KPC-2, SHV-11, SHV-12, CTX-M-14/GD): >128 µg/mL
MIC ([4]; KP1102, KPC-3, TEM-1, SHV-11/GD): >128 µg/mL
MIC ([4]; KP1246, KPC-3, SHV-12, SHV-11/FL): 128 µg/mL (≈ 266 µM)
MIC ([4]; KP1252, KPC-3, TEM-1, SHV-11/FL): >128 µg/mL
MIC ([4]; KP1317, KPC-3, TEM-1, SHV-11/GD): >128 µg/mL
MIC ([4]; KP1500, KPC-3, TEM-1, SHV-11, CTX-M-15 OXA-1 OXA-9/IS at −48): >128 µg/mL
MIC ([4]; KPM3191, KPC-3:: DDK duplication at aa#831 (KPC-29)): 64 µg/mL (≈ 133 µM)
MIC ([4]; KPM3192, KPC-3:: D179Y (KPC-31)): 32 µg/mL (≈ 66.6 µM)
MIC ([4]; KPM3200, KPC-3::duplication of EAVI (aa#278)): >128 µg/mL
MIC ([4]; KPM3205, KPC-3 ::duplication of KKDY (aa#273)): 128 µg/mL (≈ 266 µM)
MIC ([4]; KPM3210, KPC-2::D179N): 128 µg/mL (≈ 266 µM)
MIC ([4]; KPM3212, deletion of ELNSAI at aa#497): 128 µg/mL (≈ 266 µM)
MIC ([4]; KPM3213, KPC-2::D179Y (KPC-31), selected from KP1099): >128 µg/mL
MIC ([4]; KPM3214, KPC-2::D179A): 128 µg/mL (≈ 266 µM)
MIC ([4]; KPM3493, KPC-3::duplication of EL at aa#164 (KPC-25)): 32 µg/mL (≈ 66.6 µM)
MIC ([4]; KPM3494, KPC-3::R167S): 128 µg/mL (≈ 266 µM)
MIC ([4]; KPM3495, KPC-3::A175V): >128 µg/mL
MIC ([4]; KPM3511, KPC-3::P174Q): 64 µg/mL (≈ 133 µM)
MIC ([4]; KPM3512, KPC-3:: P174L): 16 µg/mL (≈ 33.3 µM)
MIC ([4]; KPM3517, KPC-3::D179Y (KPC-31)): >128 µg/mL
MIC ([4]; KPM3520, Both WT and mutant KPC-3::duplication of 8aa (aa#264–271)): >128 µg/mL
MIC ([4]; KPM3523, Both WT and mutant KPC-3:: deletion of EL (aa#241–242)): 128 µg/mL (≈ 266 µM)
MIC ([4]; KPM3546, KPC-3::R164H): >128 µg/mL

MIC50 ([5]; All Enterobacterales (N = 972)): >64/>64 μg/ml
MIC90 ([5]; All Enterobacterales (N = 972)): >64/>64 μg/ml
MIC50 ([5]; CRE KPC (N = 292)): >64/>64 μg/ml
MIC90 ([5]; CRE KPC (N = 292)): >64/>64 μg/ml
MIC50 ([5]; CRE MBL (N = 226)): >64/>64 μg/ml
MIC90 ([5]; CRE MBL (N = 226)): >64/>64 μg/ml
MIC50 ([5]; CRE OXA-48 (N = 47)): >64/>64 μg/ml
MIC90 ([5]; CRE OXA-48 (N = 47)): >64/>64 μg/ml
MIC50 ([5]; ESBLs, no CRE (N = 371)): >64/>64 μg/ml
MIC90 ([5]; ESBLs, no CRE (N = 371)): >64/>64 μg/ml
MIC50 ([5]; Non-CP CRE): >64/>64 μg/ml
MIC90 ([5]; Non-CP CRE): >64/>64 μg/ml
SMILES: COCC1=C(C(=O)O)N2C(=O)[C@@H](NC(=O)/C(=N\OC)c3csc(N)n3)[C@H]2SC1 [Cefpodoxime]

MIC50 ([5]; All Enterobacterales (N = 972)): 32 µg/mL (≈ 78 µM)
MIC90 ([5]; All Enterobacterales (N = 972)): > 64 µg/mL
MIC50 ([5]; CRE KPC (N = 292)): 16 µg/mL (≈ 39 µM)
MIC90 ([5]; CRE KPC (N = 292)): > 64 µg/mL
MIC50 ([5]; CRE MBL (N = 226)): >64/>64 μg/ml
MIC90 ([5]; CRE MBL (N = 226)): >64/>64 μg/ml
MIC50 ([5]; CRE OXA-48 (N = 47)): 64/>64 μg/ml
MIC90 ([5]; CRE OXA-48 (N = 47)): 64/>64 μg/ml
MIC50 ([5]; ESBLs, no CRE (N = 371)): 8 µg/mL (≈ 19.5 µM)
MIC90 ([5]; ESBLs, no CRE (N = 371)): > 64 µg/mL
MIC50 ([5]; Non-CP CRE): >64/>64 μg/ml
MIC90 ([5]; Non-CP CRE): >64/>64 μg/ml
SMILES: Nc1nc(/C(=C/CC(=O)O)C(=O)N[C@@H]2C(=O)N3C(C(=O)O)=CCS[C@H]23)cs1 [Ceftibuten]
